The text below walks through data of publication PMC12155096 (International Journal of Molecular Sciences, 2025).

For orientation: AC50 means the midpoint of the concentration-response curve, whichever way the signal moves. The low end stands for activity at low concentration, the high end for activity only at high concentration.

Some targets named below: human CYP2C9 (Homo sapiens, UniProt P11712); human CYP2C19 (Homo sapiens, UniProt P33261); human CYP2D6 (Homo sapiens, UniProt P10635); CYP3A4 (Homo sapiens, UniProt P08684).
The target in a further data set is T1, human CYP1A2 (Homo sapiens, UniProt P05177).
T1 sequence (P05177 1-516): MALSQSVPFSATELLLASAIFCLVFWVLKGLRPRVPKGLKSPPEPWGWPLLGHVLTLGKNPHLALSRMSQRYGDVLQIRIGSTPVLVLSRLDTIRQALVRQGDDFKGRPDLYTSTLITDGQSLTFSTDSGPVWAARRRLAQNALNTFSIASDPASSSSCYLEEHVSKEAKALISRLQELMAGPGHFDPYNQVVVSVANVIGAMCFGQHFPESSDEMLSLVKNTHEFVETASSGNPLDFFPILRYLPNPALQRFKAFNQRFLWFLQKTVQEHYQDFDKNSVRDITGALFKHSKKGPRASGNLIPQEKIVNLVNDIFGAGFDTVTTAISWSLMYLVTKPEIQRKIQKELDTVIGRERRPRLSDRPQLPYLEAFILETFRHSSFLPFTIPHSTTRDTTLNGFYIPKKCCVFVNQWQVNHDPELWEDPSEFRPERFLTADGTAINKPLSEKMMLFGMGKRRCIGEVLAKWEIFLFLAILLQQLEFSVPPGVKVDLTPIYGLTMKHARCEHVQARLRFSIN

Sequence of human CYP2C19 (P33261 whole entry): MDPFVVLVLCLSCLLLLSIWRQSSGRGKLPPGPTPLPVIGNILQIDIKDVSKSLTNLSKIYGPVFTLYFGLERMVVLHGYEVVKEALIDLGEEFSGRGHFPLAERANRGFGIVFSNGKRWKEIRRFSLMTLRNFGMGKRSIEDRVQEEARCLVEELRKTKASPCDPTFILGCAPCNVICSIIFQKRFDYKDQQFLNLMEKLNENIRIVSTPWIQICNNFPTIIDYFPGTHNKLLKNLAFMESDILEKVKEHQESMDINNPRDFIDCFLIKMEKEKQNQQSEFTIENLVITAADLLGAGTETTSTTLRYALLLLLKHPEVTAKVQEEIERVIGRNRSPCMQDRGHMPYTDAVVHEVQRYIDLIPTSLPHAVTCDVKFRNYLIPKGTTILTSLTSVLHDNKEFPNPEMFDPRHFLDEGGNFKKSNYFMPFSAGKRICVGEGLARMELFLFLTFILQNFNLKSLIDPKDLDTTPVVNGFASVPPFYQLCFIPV
Sequence of CYP3A4 (P08684 whole entry): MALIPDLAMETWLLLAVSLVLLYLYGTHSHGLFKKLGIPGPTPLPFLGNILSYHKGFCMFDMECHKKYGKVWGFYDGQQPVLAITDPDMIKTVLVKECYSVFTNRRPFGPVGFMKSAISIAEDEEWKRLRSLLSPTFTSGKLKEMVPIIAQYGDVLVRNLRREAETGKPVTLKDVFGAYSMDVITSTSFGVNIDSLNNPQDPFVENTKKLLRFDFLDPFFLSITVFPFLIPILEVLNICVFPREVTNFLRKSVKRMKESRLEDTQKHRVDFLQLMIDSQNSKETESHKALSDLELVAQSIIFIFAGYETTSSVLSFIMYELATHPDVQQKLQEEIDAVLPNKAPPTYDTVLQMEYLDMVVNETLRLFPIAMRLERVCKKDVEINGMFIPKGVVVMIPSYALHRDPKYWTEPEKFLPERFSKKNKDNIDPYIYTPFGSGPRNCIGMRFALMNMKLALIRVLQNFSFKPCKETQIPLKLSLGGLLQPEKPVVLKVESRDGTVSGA
Sequence of human CYP2D6 (P10635 whole entry): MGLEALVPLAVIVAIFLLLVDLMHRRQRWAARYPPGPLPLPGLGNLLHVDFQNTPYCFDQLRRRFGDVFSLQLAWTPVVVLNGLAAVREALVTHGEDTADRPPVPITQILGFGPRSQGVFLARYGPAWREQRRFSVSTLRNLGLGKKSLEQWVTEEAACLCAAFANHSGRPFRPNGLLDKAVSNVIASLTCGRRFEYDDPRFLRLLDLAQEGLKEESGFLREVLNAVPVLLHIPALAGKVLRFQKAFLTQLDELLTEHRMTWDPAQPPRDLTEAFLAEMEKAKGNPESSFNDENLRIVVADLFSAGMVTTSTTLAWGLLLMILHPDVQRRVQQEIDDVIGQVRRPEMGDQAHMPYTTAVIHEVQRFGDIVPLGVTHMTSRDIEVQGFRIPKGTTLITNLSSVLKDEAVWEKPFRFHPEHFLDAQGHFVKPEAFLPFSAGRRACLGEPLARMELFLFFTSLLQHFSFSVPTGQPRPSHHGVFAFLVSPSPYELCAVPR
Sequence of human CYP2C9 (P11712 whole entry): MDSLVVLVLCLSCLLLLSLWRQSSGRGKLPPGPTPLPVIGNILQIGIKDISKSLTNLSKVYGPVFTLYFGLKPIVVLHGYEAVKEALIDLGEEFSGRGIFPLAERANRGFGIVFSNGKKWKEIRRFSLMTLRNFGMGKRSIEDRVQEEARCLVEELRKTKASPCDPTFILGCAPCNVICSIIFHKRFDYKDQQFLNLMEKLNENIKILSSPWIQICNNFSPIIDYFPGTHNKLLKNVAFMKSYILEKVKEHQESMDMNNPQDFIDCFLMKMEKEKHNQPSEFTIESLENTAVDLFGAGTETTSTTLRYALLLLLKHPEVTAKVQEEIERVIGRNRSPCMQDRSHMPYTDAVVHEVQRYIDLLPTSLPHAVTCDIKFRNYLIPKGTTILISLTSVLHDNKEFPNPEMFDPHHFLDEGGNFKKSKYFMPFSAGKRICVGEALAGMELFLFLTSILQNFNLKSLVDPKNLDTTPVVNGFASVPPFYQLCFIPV

Turning to `CC(=O)O[C@H]1CC[C@@]2(C)C(=CC[C@@H]3[C@@H]2CC[C@]2(C)C(C(C)=O)=CC[C@@H]32)C1` [Dehydropregnenolone acetate], on human CYP1A2, the “CYP1A2 AC50 (half-maximal activity concentration)” value (“CYP1A2 AC50” below) is given as “Inactive”. In addition, the “CYP2C9 AC50 (half-maximal activity concentration)” value (“CYP2C9 AC50” for short) on human CYP2C9 is on record as “Inactive”. On human CYP2C19, the “CYP2C19 AC50 (half-maximal activity concentration)” value (shortened to “CYP2C19 AC50”) is recorded as “Inactive”. The “CYP2D6 AC50 (half-maximal activity concentration)” value (shortened to “CYP2D6 AC50”) on human CYP2D6 was “Inactive”. On CYP3A4, the AC50 is 4.44 µM.

For the compound `COC(=O)CCCCCCCC(=O)OC` [Dimethyl nonanedioate], the AC50 was 40.1 µM on human CYP1A2 and 58.1 µM at CYP3A4. In addition, the “CYP2C9 AC50” value on human CYP2C9 was “Inconclusive inhibitor”. For the same compound, the “CYP2C19 AC50” value on human CYP2C19 is reported as “Inconclusive inhibitor”. In addition, the “CYP2D6 AC50” value at human CYP2D6 was “Inconclusive inhibitor”.

Turning to `O=C(Oc1ccccc1)c1cccc(C(=O)Oc2ccccc2)c1` [Diphenyl isophthalate], the AC50 at human CYP1A2 stood at 36.1 µM; on human CYP2C9 it was 9.46 µM; on human CYP2C19, 9.89 µM; at human CYP2D6, 36.5 µM; on CYP3A4, 20.9 µM.

For `CC(=O)O[C@@H]1C[C@H]2[C@@H]3CCc4cc(OC(=O)c5ccccc5)ccc4[C@H]3CC[C@]2(C)[C@H]1OC(C)=O` [Estriol benzoate diacetate], the “CYP1A2 AC50” value on human CYP1A2 is given as “Inactive”. In addition, the AC50 was 22.8 µM on human CYP2C9 and 3.74 µM at CYP3A4. Besides, on human CYP2C19, the “CYP2C19 AC50” value is listed as “Inactive”. The “CYP2D6 AC50” value on human CYP2D6 was “Inactive”.

Consider `CCC(=O)Oc1ccc2c(c1)CC[C@@H]1[C@@H]2CC[C@@]2(C)[C@H]1C[C@@H](OC(=O)CC)[C@@H]2OC(=O)CC` [Estriol tripropionate], for which the “CYP1A2 AC50” value at human CYP1A2 is “Inconclusive inhibitor”. The values for the AC50 at human CYP2C9, on human CYP2C19 and at CYP3A4 were 19.8 µM, 29.9 µM and 4.92 µM, respectively. Also, on human CYP2D6, the “CYP2D6 AC50” value is on record as “Inconclusive inhibitor”.

Take `CCOC(=O)C(C#N)=C(c1ccccc1)c1ccccc1` [Ethyl 2-cyano-3,3-diphenylacrylate]: the AC50 was found to be 1.87 µM at human CYP1A2, 3.75 µM on human CYP2C9, 4.01 µM on human CYP2C19 and 7.23 µM at CYP3A4. In addition, the “CYP2D6 AC50” value on human CYP2D6 is “Inconclusive inhibitor”.

`CCOC(=O)c1ccc(O)c(O)c1` [Ethyl protocatechuate]: the AC50 at human CYP1A2 was 27.2 µM; on human CYP2C9, 32.2 µM. In addition, the “CYP2C19 AC50” value on human CYP2C19 was “Inactive”. Besides, the “CYP2D6 AC50” value at human CYP2D6 is listed as “Inactive”. For the same compound, the “CYP3A4 AC50 (half-maximal activity concentration)” value (from here on “CYP3A4 AC50”) on CYP3A4 is on record as “Inactive”.

As for `C[C@]12CC[C@H]3[C@@H](CCC4=CC(=O)CC[C@@]43C)[C@@H]1CC[C@@H]2C(=O)O` [Etienic acid], the “CYP1A2 AC50” value at human CYP1A2 is recorded as “Inactive”. The results for the AC50 at human CYP2C9 and at CYP3A4 were 21.2 µM and 20.8 µM, respectively. For the same compound, the “CYP2C19 AC50” value on human CYP2C19 was “Inactive”. Further, on human CYP2D6, the “CYP2D6 AC50” value is “Inactive”.

In the case of `CN1CCC(Nc2ncc3ncnc(Nc4ccc(F)c(Cl)c4)c3n2)CC1.Cl.Cl` [Falnidamol dihydrochloride], at human CYP1A2, the “CYP1A2 AC50” value is listed as “Inactive”. Further, at human CYP2C9, the “CYP2C9 AC50” value is recorded as “Inactive”. The “CYP2C19 AC50” value at human CYP2C19 is on record as “Inactive”. Besides, the AC50 amounted to 18.4 µM on human CYP2D6 and 14.4 µM at CYP3A4.

Regarding `O=C(NCc1ncc(C(F)(F)F)cc1Cl)c1c(Cl)cccc1Cl` [Fluopicolide], the AC50 at human CYP1A2 was 33 µM; at human CYP2C9 it was 4.13 µM; at human CYP2C19, 18.6 µM; on human CYP2D6, 6.57 µM; at CYP3A4 it was 12.6 µM.

For `C/C=C1/C(=O)C[C@H]2[C@@H]3CCC4=CC(=O)CC[C@]4(C)[C@H]3CC[C@]12C` [Guggulsterone E], the “CYP1A2 AC50” value on human CYP1A2 is on record as “Inconclusive inhibitor”. The values for the AC50 at human CYP2C9, on human CYP2C19 and on CYP3A4 were 19.6 µM, 4.67 µM and 1.82 µM, respectively. Besides, the “CYP2D6 AC50” value at human CYP2D6 is reported as “Inactive”.

In the case of `C/C=C1\C(=O)C[C@H]2[C@@H]3CCC4=CC(=O)CC[C@]4(C)[C@H]3CC[C@]12C` [Guggulsterone Z], the “CYP1A2 AC50” value at human CYP1A2 is “Inactive”. In addition, the AC50 at human CYP2C9 turned out to be 24.8 µM; on human CYP2C19 it was 6.83 µM; on CYP3A4 it was 3.8 µM. Further, at human CYP2D6, the “CYP2D6 AC50” value is reported as “Inactive”.

Consider `O=C(OCCCCCCOC(=O)c1ccccc1)c1ccccc1` [Hexane-1,6-diyl dibenzoate], for which the AC50 on human CYP1A2 is 3.43 µM; on human CYP2C9 it was 10.6 µM; on human CYP2C19, 83.2 µM; at CYP3A4 it was 24 µM. Further, the “CYP2D6 AC50” value at human CYP2D6 is “Inactive”.

Take `Cl.Nc1c2c(nc3c1CCC3)CCCC2.O` [Ipidacrine hydrochloride hydrate]: at human CYP1A2, the “CYP1A2 AC50” value is “Inconclusive inhibitor”. The “CYP2C9 AC50” value at human CYP2C9 is “Inactive”. Besides, on human CYP2C19, the “CYP2C19 AC50” value is “Inactive”. Moreover, the AC50 at human CYP2D6 is 10.7 µM; on CYP3A4, 14.9 µM.

On to `CC(C)COC(=O)C=Cc1ccccc1` [Isobutyl 3-phenylacrylate], for which the AC50 on human CYP1A2 came out at 17 µM; at human CYP2C9 it was 44 µM; at human CYP2C19, 80 µM; on CYP3A4, 22.8 µM. The “CYP2D6 AC50” value on human CYP2D6 was “Inactive”.

In the case of `CCOC(=O)C1=NOC(c2ccccc2)(c2ccccc2)C1` [Isoxadifen-ethyl], the “CYP1A2 AC50” value at human CYP1A2 is “Inconclusive inhibitor”. Further, the values for the AC50 at human CYP2C9, at human CYP2C19 and on CYP3A4 were 8.36 µM, 21.6 µM and 34.3 µM, respectively. For the same compound, the “CYP2D6 AC50” value on human CYP2D6 is “Inconclusive activator”.

`COCC(=O)N(c1c(C)cccc1C)[C@H](C)C(=O)OC` [Metalaxyl-M]: the AC50 at human CYP1A2 and on CYP3A4 was 47.7 µM throughout. Besides, the “CYP2C9 AC50” value at human CYP2C9 is listed as “Inactive”. The “CYP2C19 AC50” value on human CYP2C19 is “Inconclusive inhibitor”. For the same compound, the “CYP2D6 AC50” value at human CYP2D6 is given as “Inactive”.

For the compound `COC(=O)Cc1cccc2ccccc12` [Methyl 1-naphthaleneacetate], the AC50 at human CYP1A2 was 18.8 µM; on human CYP2C9, 41.9 µM; on human CYP2C19 it was 63.5 µM; on CYP3A4 it was 27.5 µM. In addition, the “CYP2D6 AC50” value at human CYP2D6 was “Inactive”.

For the compound `CCS(=O)(=O)c1ccc(OC)c(C(=O)OC)c1` [Methyl 5-(ethylsulfonyl)-o-anisate], the “CYP1A2 AC50” value at human CYP1A2 is on record as “Inactive”. On human CYP2C9, this compound gave an AC50 of 24.6 µM. Also, the “CYP2C19 AC50” value on human CYP2C19 is listed as “Inconclusive inhibitor”. In addition, the “CYP2D6 AC50” value on human CYP2D6 is “Inactive”. Moreover, the “CYP3A4 AC50” value at CYP3A4 was “Inactive”.

As to `COC(=O)c1cc(S(N)(=O)=O)ccc1OC` [Methyl 5-sulfamoyl-o-anisate], the “CYP1A2 AC50” value at human CYP1A2 was “Inactive”. For the same compound, the activity on human CYP2C9 was half-maximal at 30.9 µM (AC50). Also, at human CYP2C19, the “CYP2C19 AC50” value was “Inactive”. The “CYP2D6 AC50” value on human CYP2D6 was “Inactive”. In addition, the “CYP3A4 AC50” value on CYP3A4 is “Inactive”.

For the compound `CCCCCCC(O)CCCCCCCCCCC(=O)OC` (stereo not shown) [Methyl 12-hydroxyoctadecanoate], the “CYP1A2 AC50” value at human CYP1A2 is given as “Inconclusive inhibitor”. In addition, the AC50 on human CYP2C9 amounted to 23.8 µM; on CYP3A4, 27.7 µM. Besides, the “CYP2C19 AC50” value at human CYP2C19 is “Inactive”. Also, the “CYP2D6 AC50” value on human CYP2D6 is listed as “Inactive”.

Consider `CCCCCCCCCCCCCOP(=O)(O)O` [Monotridecyl phosphate], for which the AC50 amounted to 65.1 µM at human CYP1A2, 56.7 µM at human CYP2C9, 45.5 µM on human CYP2C19 and 89.4 µM on CYP3A4. On human CYP2D6, the “CYP2D6 AC50” value was “Inactive”.

For `O=C1C=CC(=O)N1c1cccc(N2C(=O)C=CC2=O)c1` [N,N'-1,3-Phenylenedimaleimide], the AC50 on human CYP1A2 was found to be 12.7 µM; at human CYP2C9, 5.22 µM; on human CYP2C19, 7.04 µM; on human CYP2D6, 36.3 µM; on CYP3A4, 9.83 µM.

As to `CN(C)CCc1c[nH]c2ccccc12.O=C(O)/C=C/C(=O)O` [N,N-Dimethyltryptamine fumarate], the “CYP1A2 AC50” value at human CYP1A2 is on record as “Inactive”. For the same compound, the “CYP2C9 AC50” value at human CYP2C9 was “Inactive”. For the same compound, the “CYP2C19 AC50” value on human CYP2C19 is listed as “Inactive”. Further, the AC50 on human CYP2D6 is 34.6 µM; at CYP3A4 it was 89.9 µM.

Consider `CCC(CC)Nc1ccc(C)c(C)c1` [N-(1-Ethylpropyl)-3,4-xylidine], for which the AC50 was 11.6 µM on human CYP1A2, 33.6 µM on human CYP2C9, 10.7 µM on human CYP2C19 and 1.45 µM at CYP3A4. The “CYP2D6 AC50” value on human CYP2D6 is given as “Inconclusive inhibitor”.

Turning to `CCNS(=O)(=O)c1ccc(C)cc1` [N-Ethyl-4-methylbenzenesulfonamide], the results for the AC50 on human CYP1A2, on human CYP2C9 and at human CYP2C19 were 41.1 µM, 32 µM and 25.9 µM, respectively. The “CYP2D6 AC50” value on human CYP2D6 is on record as “Inconclusive inhibitor”. In addition, the “CYP3A4 AC50” value at CYP3A4 is on record as “Inactive”.
